Measurements reported in ChEMBL document CHEMBL1275557, “First countrywide survey of acquired metallo-beta-lactamases in gram-negative pathogens in Italy” (2008).
≈ marks a conversion by molar mass, not a printed value.

Columns and labels:
Type in all cases: functional
Pseudomonas aeruginosa [1] = assay: Antibacterial activity against VIM-1 producing Pseudomonas aeruginosa clone D2 isolate VA-06X-17 by Etest method
Pseudomonas aeruginosa [2] = assay: Antibacterial activity against VIM-1 producing Pseudomonas aeruginosa clone D1 isolate VA-06X-63 by Etest method
Pseudomonas aeruginosa [3] = assay: Antibacterial activity against VIM-1 producing Pseudomonas aeruginosa clone A3 isolate NA-14X-34 by Etest method
Pseudomonas putida = assay: Antibacterial activity against VIM-1 producing Pseudomonas putida isolate RM-11X-11 by Etest method
Pseudomonas aeruginosa [4] = assay: Antibacterial activity against VIM-1 producing Pseudomonas aeruginosa clone D4 isolate VA-06X-47 by Etest method
Pseudomonas aeruginosa [5] = assay: Antibacterial activity against VIM-2 producing Pseudomonas aeruginosa clone B2 isolate VA-06X-38 by Etest method
Pseudomonas aeruginosa [6] = assay: Antibacterial activity against VIM-1 producing Pseudomonas aeruginosa clone D2 isolate VA-06X-16 by Etest method
Pseudomonas aeruginosa [7] = assay: Antibacterial activity against IMP-13 producing Pseudomonas aeruginosa clone C2 isolate NA-14X-11 by Etest method
Enterobacter cloacae = assay: Antibacterial activity against VIM-1 producing Enterobacter cloacae isolate TO-16X-51 by Etest method
Pseudomonas aeruginosa [8] = assay: Antibacterial activity against IMP-13 producing Pseudomonas aeruginosa clone C2 isolate NA-14X-10 by Etest method
Pseudomonas aeruginosa [9] = assay: Antibacterial activity against IMP-13 producing Pseudomonas aeruginosa clone C3 isolate PG-12X-03 by Etest method
Pseudomonas aeruginosa [10] = assay: Antibacterial activity against VIM-1 producing Pseudomonas aeruginosa clone A3 isolate FG-17X-08 by Etest method
Pseudomonas aeruginosa [11] = assay: Antibacterial activity against VIM-1 producing Pseudomonas aeruginosa clone G isolate NA-14X-13 by Etest method
Pseudomonas aeruginosa [12] = assay: Antibacterial activity against IMP-13 producing Pseudomonas aeruginosa clone C2 isolate NA-14X-12 by Etest method
Pseudomonas aeruginosa [13] = assay: Antibacterial activity against IMP-13 producing Pseudomonas aeruginosa clone C2 isolate NA-14X-02 by Etest method
Pseudomonas aeruginosa [14] = assay: Antibacterial activity against VIM-1 producing Pseudomonas aeruginosa clone A1 isolate FG-17X-14 by Etest method
Pseudomonas aeruginosa [15] = assay: Antibacterial activity against VIM-2 producing Pseudomonas aeruginosa clone B1 isolate SS-09X-45 by Etest method
Pseudomonas aeruginosa [16] = assay: Antibacterial activity against VIM-1 producing Pseudomonas aeruginosa clone A2 isolate NA-14X-26 by Etest method
Pseudomonas aeruginosa [17] = assay: Antibacterial activity against VIM-1 producing Pseudomonas aeruginosa clone E isolate VA-06X-29 by Etest method
Pseudomonas aeruginosa [18] = assay: Antibacterial activity against VIM-1 producing Pseudomonas aeruginosa clone D3 isolate VA-06X-65 by Etest method
Pseudomonas aeruginosa [19] = assay: Antibacterial activity against VIM-1 producing Pseudomonas aeruginosa clone A2 isolate NA-14X-32 by Etest method
Pseudomonas aeruginosa [20] = assay: Antibacterial activity against VIM-2 producing Pseudomonas aeruginosa clone B2 isolate VA-06X-28 by Etest method
Pseudomonas aeruginosa [21] = assay: Antibacterial activity against VIM-2 producing Pseudomonas aeruginosa clone B3 isolate PV-05X-02 by Etest method
Pseudomonas aeruginosa [22] = assay: Antibacterial activity against IMP-13 producing Pseudomonas aeruginosa clone C1 isolate AV-13X-28 by Etest method
Pseudomonas aeruginosa [23] = assay: Antibacterial activity against VIM-1 producing Pseudomonas aeruginosa clone F isolate RM-11X-09 by Etest method
Pseudomonas aeruginosa [24] = assay: Antibacterial activity against VIM-2 producing Pseudomonas aeruginosa clone B3 isolate CR-04X-14 by Etest method
Pseudomonas aeruginosa [25] = assay: Antibacterial activity against VIM-1 producing Pseudomonas aeruginosa clone D isolate VA-06X-69 by Etest method
Pseudomonas aeruginosa [26] = assay: Antibacterial activity against VIM-2 producing Pseudomonas aeruginosa clone B3 isolate PV-05X-07 by Etest method
Pseudomonas aeruginosa [27] = assay: Antibacterial activity against VIM-2 producing Pseudomonas aeruginosa clone B2 isolate VA-06X-20 by Etest method
Pseudomonas aeruginosa [28] = assay: Antibacterial activity against VIM-1 producing Pseudomonas aeruginosa clone A2 isolate NA-14X-21 by Etest method

| Compound | MIC (Pseudomonas aeruginosa [1]) [µg/mL] | MIC (Pseudomonas aeruginosa [2]) [µg/mL] | MIC (Pseudomonas aeruginosa [3]) [µg/mL] | MIC (Pseudomonas putida) [µg/mL] | MIC (Pseudomonas aeruginosa [4]) [µg/mL] | MIC (Pseudomonas aeruginosa [5]) [µg/mL] | MIC (Pseudomonas aeruginosa [6]) [µg/mL] | MIC (Pseudomonas aeruginosa [7]) [µg/mL] | MIC (Enterobacter cloacae) [µg/mL] | MIC (Pseudomonas aeruginosa [8]) [µg/mL] | MIC (Pseudomonas aeruginosa [9]) [µg/mL] | MIC (Pseudomonas aeruginosa [10]) [µg/mL] | MIC (Pseudomonas aeruginosa [11]) [µg/mL] | MIC (Pseudomonas aeruginosa [12]) [µg/mL] | MIC (Pseudomonas aeruginosa [13]) [µg/mL] | MIC (Pseudomonas aeruginosa [14]) [µg/mL] | MIC (Pseudomonas aeruginosa [15]) [µg/mL] | MIC (Pseudomonas aeruginosa [16]) [µg/mL] | MIC (Pseudomonas aeruginosa [17]) [µg/mL] | MIC (Pseudomonas aeruginosa [18]) [µg/mL] | also measured |
| --- | --- | --- | --- | --- | --- | --- | --- | --- | --- | --- | --- | --- | --- | --- | --- | --- | --- | --- | --- | --- | --- |
| CC(C)(O/N=C(\C(=O)N[C@@H]1C(=O)N2C(C(=O)[O-])=C(C[n+]3ccccc3)CS[C@H]12)c1csc(N)n1)C(=O)O [CEFTAZIDIME] | > 128 | > 128 | > 128 | > 128 | > 128 | 48 (≈ 87.8 µM) | > 128 | > 128 | > 128 | > 128 | > 128 | > 128 | > 128 | > 128 | > 128 | > 128 | > 128 | > 128 | > 128 | > 128 | MIC (Pseudomonas aeruginosa [19]): > 128 µg/mL; MIC (Pseudomonas aeruginosa [20]): 64 µg/mL (≈ 117 µM); MIC (Pseudomonas aeruginosa [21]): 32 µg/mL (≈ 58.5 µM); MIC (Pseudomonas aeruginosa [22]): > 128 µg/mL; MIC (Pseudomonas aeruginosa [23]): > 128 µg/mL; MIC (Pseudomonas aeruginosa [24]): 64 µg/mL (≈ 117 µM); MIC (Pseudomonas aeruginosa [25]): > 128 µg/mL; MIC (Pseudomonas aeruginosa [26]): 32 µg/mL (≈ 58.5 µM); MIC (Pseudomonas aeruginosa [27]): 64 µg/mL (≈ 117 µM); MIC (Pseudomonas aeruginosa [28]): > 128 µg/mL |
| O=C(O)c1cn(C2CC2)c2cc(N3CCNCC3)c(F)cc2c1=O [CIPROFLOXACIN] |  |  |  | 0.06 (≈ 0.181 µM) |  |  |  |  |  |  |  |  |  |  |  |  |  |  |  |  |  |
| C[C@H]1COc2c(N3CCN(C)CC3)c(F)cc3c(=O)c(C(=O)O)cn1c23.C[C@H]1COc2c(N3CCN(C)CC3)c(F)cc3c(=O)c(C(=O)O)cn1c23.O [LEVOFLOXACIN] | > 32 | > 32 | > 32 | 0.25 | > 32 | > 32 | > 32 | > 32 | > 32 | > 32 | > 32 | > 32 | > 32 | > 32 | > 32 | > 32 | > 32 | > 32 | > 32 | > 32 | MIC (Pseudomonas aeruginosa [19]): > 32 µg/mL; MIC (Pseudomonas aeruginosa [20]): > 32 µg/mL; MIC (Pseudomonas aeruginosa [21]): > 32 µg/mL; MIC (Pseudomonas aeruginosa [22]): > 32 µg/mL; MIC (Pseudomonas aeruginosa [23]): > 32 µg/mL; MIC (Pseudomonas aeruginosa [24]): > 32 µg/mL; MIC (Pseudomonas aeruginosa [25]): > 32 µg/mL; MIC (Pseudomonas aeruginosa [26]): > 32 µg/mL; MIC (Pseudomonas aeruginosa [27]): > 32 µg/mL; MIC (Pseudomonas aeruginosa [28]): > 32 µg/mL |
| C[C@@H](O)[C@H]1C(=O)N2C(C(=O)O)=C(S[C@@H]3CN[C@H](C(=O)N(C)C)C3)[C@H](C)[C@H]12 [MEROPENEM] | > 32 | > 32 | > 32 | > 32 | > 32 | > 32 | > 32 | > 32 | 2 (≈ 5.22 µM) | > 32 | > 32 | > 32 | > 32 | > 32 | > 32 | > 32 | > 32 | > 32 | > 32 | > 32 | MIC (Pseudomonas aeruginosa [19]): > 32 µg/mL; MIC (Pseudomonas aeruginosa [20]): > 32 µg/mL; MIC (Pseudomonas aeruginosa [21]): 8 µg/mL (≈ 20.9 µM); MIC (Pseudomonas aeruginosa [22]): 8 µg/mL (≈ 20.9 µM); MIC (Pseudomonas aeruginosa [23]): > 32 µg/mL; MIC (Pseudomonas aeruginosa [24]): > 32 µg/mL; MIC (Pseudomonas aeruginosa [25]): > 32 µg/mL; MIC (Pseudomonas aeruginosa [26]): 8 µg/mL (≈ 20.9 µM); MIC (Pseudomonas aeruginosa [27]): > 32 µg/mL; MIC (Pseudomonas aeruginosa [28]): > 32 µg/mL |
| COLISTIN | 1 | 1 | 2 | 0.25 | 1 | 1 | 1 | 0.5 | 0.25 | 0.5 | 0.5 | 0.5 | 2 | 0.5 | 0.5 | 1 | 2 | 2 | 2 | 0.5 | MIC (Pseudomonas aeruginosa [19]): 2 µg/mL; MIC (Pseudomonas aeruginosa [20]): 1 µg/mL; MIC (Pseudomonas aeruginosa [21]): 1 µg/mL; MIC (Pseudomonas aeruginosa [22]): 2 µg/mL; MIC (Pseudomonas aeruginosa [23]): 1 µg/mL; MIC (Pseudomonas aeruginosa [24]): 2 µg/mL; MIC (Pseudomonas aeruginosa [25]): 1 µg/mL; MIC (Pseudomonas aeruginosa [26]): 1 µg/mL; MIC (Pseudomonas aeruginosa [27]): 1 µg/mL; MIC (Pseudomonas aeruginosa [28]): 2 µg/mL |
